Legend:
[1] = system: human peripheral blood lymphocytes (HPBL)
[2] = system: healthy male and female subjects; test: Single dose crossover study in healthy volunteers, treatment-emergent adverse events; assay type: in vivo, human; details: all treatments
Description: A total of 128 TEAEs (treatment-emergent adverse event) were reported by 15 of 16 (94%) subjects of which 79 TEAEs reported by 14 of 16 (88%) subjects were to be related to the study drug. Overall, a total of 14 of 128 TEAEs reported by 4 (25%) subjects were of moderate severity and 114 of 128 TEAEs reported by 15 (94%) subjects were of mild severity. […] The most frequently occurring adverse events (reported more than twice) were headache, dizziness, hypokinesia, feeling abnormal, fatigue, euphoric mood inappropriate affect, nausea and hyperhidrosis. Table 4 presents the frequency of the most frequently reported related TEAEs as a percentage of the subjects that experienced an adverse effect per treatment.

[3] = system: human peripheral blood lymphocytes (HPBL); remark: listed apart in the source
Procedure: Toxicity (defined as ≥45% reduction in MI relative to the vehicle control) was evaluated at 9 concentrations, ranging from 0.0238 to 238 μg/ml, after exposure of HPBL to esketamine for 20 hours in the absence of S9 activation, or for 4 hours, either in the presence or absence of S9 activation, followed by a 16-hour recovery period.
The definitive chromosome aberration assay evaluated HPBL cells after exposure to esketamine for 20 hours in the absence of S9 activation, or for 4 hours, either in the presence of absence of S9 activation, followed by a 16-hour recovery. Positive controls for chromosomal aberrations in non-activated and S9-activated evaluations, respectively, consisted of mitomycin C (MMC, 0.6 and 0.3 μg/mL for the 4- and 20-hour exposures, respectively) and cyclophosphamide (CP, 2.5, 5, and 7.5 μg/mL). […] Initially, the doses selected for evaluation of chromosomal aberrations were 60, 120, and 238 μg/mL for the non-activated 4- and 20-hour treatment conditions; and 30, 60, and 200 μg/mL for the S9-activated 4-hour treatment condition.

[4] = system: C57Bl/6 strain mice; test: Tail suspension test, 7-day administration; assay type: in vivo, mouse
Procedure: Esketamine HCl solutions were administered intraperitoneally (ip) to 8 groups of 10 inbred C57Bl/6 strain mice divided to receive one of the following dose levels for 7 days:
1. saline 10 ml/kg ip once prior to TST
2. esketamine 15 mg/kg ip once on day 7 prior to TST
3. esketamine 30 mg/kg ip once on day 7 prior to TST
4. saline 10 ml/kg ip daily for 7-days
5. esketamine 7.5 mg/kg ip daily for 7-days
6. esketamine 15 mg/kg ip daily for 7-days
7. esketamine 30 mg/kg ip once on day 1+saline daily for 6 more days
8. esketamine 30 mg/kg ip once on day 1+esketamine 7.5 mg/kg for 6 more days.
30 minutes after the last treatment, the animals were exposed to the tail suspension test (TST).

[5] = system: liver of Crl:CD(SD) rats; test: In vivo single cell gel electrophoresis (comet) assay, liver; details: some male animals given 75 mg/kg/day
[6] = system: C57Bl/6 strain mice; test: Tail suspension test, single dose; assay type: in vivo, mouse; details: TST after 30 minutes
Procedure: Ketamine and esketamine HCl solutions at dose levels of 7.5, 15 and 30 mg/kg were administered intraperitoneally (ip) to groups of 10 inbred C57Bl/6 strain mice. After 30 minutes animals were exposed to the tail suspension test (TST).

Compound | Toxicity (mitotic index) [1] | severe TEAEs or SAEs [2] | Toxicity (≥45% reduction in MI relative to the vehicle control) [3] | cytotoxicity (45% reduction in mitotic index relative to the vehicle control) ([3]; definitive assay, non-activated 4- and 20-hour treatment, any dose (30 to 238 μg/ml)) | efficacy in the TST vs 7-day saline control group ([4]; 7.5 mg/kg ip daily for 7 days (Group 5)) | decrease in immobility time ([4]; 15 mg/kg ip daily for 7 days (Group 6), not statistically significant) [%] | decrease in immobility time ([4]; 15 mg/kg ip once, acute (printed Group 3), p<0.007) [%] | effect on time spent in immobility ([4]; 30 mg/kg ip once on day 1 + 7.5 mg/kg for 6 more days (Group 8) vs Group 7, p=0.02) [%] | immobility time 7 days after a single injection ([4]; 30 mg/kg ip once on day 1 + saline for 6 more days (Group 7)) | liver histopathology [5] | reduction of immobility time from the saline control group ([6]; 7.5 mg/kg ip) [%] | reduction of immobility time from the saline control group ([6]; 15 mg/kg ip) [%] | reduction of immobility time from the saline control group ([6]; 30 mg/kg ip) [%]
N[C@]1(c2ccccc2Cl)CCCCC1=O [(S)-norketamine, (2S)-2-(2-Chlorophenyl)-2-(amino) cyclohexanone] | not observed |  |  |  |  |  |  |  |  |  |  |  | 
CN[C@]1(c2ccccc2Cl)CCCCC1=O [esketamine, (2S)-2-(2-Chlorophenyl)-2-(methylamino) cyclohexanone] |  | No severe TEAEs or SAEs | not observed | not observed | did not exert any efficacy | ~35 | 38.9 | 53.4 | no decline in immobility time | Increased hepatocellular mitotic figures | 27.0 | 43.6 | 58.1
CNC1(c2ccccc2Cl)CCCCC1=O (stereo not drawn) [ketamine, dl 2-(2-chlorophenyl)-2(methylamino) cyclohexanone] |  |  |  |  |  |  |  |  |  |  |  |  | 71.2
